The values that follow come from PMC4979471 (Cell Death Discovery, 2015).

What all share (test): Kinase selectivity, P33-radiolabeled assay
Format in all cases: biochemical
What all share (conditions): 10 μM ATP

One assay concerns the target T1, PKCzeta (Homo sapiens, UniProt Q05513).
T1 construct: purchased Reaction Biology Corp
T1 sequence (Q05513 1-592): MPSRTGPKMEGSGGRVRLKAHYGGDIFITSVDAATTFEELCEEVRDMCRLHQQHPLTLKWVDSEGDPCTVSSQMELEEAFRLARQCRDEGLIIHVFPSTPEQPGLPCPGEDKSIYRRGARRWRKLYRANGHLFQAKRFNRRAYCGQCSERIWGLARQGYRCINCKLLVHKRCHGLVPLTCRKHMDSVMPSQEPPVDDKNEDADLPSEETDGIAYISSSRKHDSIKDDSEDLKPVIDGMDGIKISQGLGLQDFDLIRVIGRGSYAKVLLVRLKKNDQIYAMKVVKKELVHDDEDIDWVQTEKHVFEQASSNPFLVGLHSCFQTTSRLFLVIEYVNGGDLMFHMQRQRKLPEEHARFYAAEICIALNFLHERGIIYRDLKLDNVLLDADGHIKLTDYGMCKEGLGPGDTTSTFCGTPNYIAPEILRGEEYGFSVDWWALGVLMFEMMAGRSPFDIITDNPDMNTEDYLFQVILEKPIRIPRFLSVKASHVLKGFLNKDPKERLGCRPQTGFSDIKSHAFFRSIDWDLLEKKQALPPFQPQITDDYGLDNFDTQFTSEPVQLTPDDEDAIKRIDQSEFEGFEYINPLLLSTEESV
The method in brief:
(§1)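 Percent residual kinase activity versus DMSO is reported. Conditions: compound at 10 μM, ATP at 10 μM, n = 2.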

Another assay concerns the target T2, LCK (Homo sapiens, UniProt P06239).
T2 construct: purchased Reaction Biology Corp
The method in brief: as §1

Another assay has as its target T3, HIPK2 (Homo sapiens, UniProt Q9H2X6).
T3 construct: purchased Reaction Biology Corp
The method in brief: as §1

The next assay addresses T4, TYRO3/SKY (Homo sapiens, UniProt Q06418).
T4 construct: purchased Reaction Biology Corp
T4 sequence (Q06418 41-890): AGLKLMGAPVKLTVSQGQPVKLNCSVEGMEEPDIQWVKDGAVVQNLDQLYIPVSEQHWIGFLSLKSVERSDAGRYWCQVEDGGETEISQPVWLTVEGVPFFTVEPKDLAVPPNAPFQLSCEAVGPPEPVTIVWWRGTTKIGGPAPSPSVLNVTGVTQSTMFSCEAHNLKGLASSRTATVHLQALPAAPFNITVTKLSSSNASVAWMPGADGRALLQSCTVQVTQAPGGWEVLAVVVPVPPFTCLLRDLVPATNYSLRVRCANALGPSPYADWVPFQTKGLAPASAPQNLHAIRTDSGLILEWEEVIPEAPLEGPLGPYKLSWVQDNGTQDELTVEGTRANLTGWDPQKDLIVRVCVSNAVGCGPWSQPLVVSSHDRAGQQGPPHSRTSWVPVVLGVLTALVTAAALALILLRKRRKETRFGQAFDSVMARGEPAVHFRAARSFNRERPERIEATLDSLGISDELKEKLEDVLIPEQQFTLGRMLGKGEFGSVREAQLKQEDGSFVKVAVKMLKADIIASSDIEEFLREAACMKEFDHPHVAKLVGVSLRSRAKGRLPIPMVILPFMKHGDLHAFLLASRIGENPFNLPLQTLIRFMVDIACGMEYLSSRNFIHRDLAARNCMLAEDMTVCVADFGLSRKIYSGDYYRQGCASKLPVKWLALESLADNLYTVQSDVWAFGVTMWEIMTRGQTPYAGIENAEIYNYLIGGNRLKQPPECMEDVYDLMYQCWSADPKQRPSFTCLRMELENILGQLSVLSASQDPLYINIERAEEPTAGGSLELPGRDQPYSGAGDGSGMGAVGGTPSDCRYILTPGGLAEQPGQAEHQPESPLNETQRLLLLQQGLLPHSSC
The method in brief:
as §1

A further assay concerns the target T5, SGK3/SGKL (Homo sapiens, UniProt Q96BR1).
T5 construct: purchased Reaction Biology Corp
T5 sequence (Q96BR1 1-496): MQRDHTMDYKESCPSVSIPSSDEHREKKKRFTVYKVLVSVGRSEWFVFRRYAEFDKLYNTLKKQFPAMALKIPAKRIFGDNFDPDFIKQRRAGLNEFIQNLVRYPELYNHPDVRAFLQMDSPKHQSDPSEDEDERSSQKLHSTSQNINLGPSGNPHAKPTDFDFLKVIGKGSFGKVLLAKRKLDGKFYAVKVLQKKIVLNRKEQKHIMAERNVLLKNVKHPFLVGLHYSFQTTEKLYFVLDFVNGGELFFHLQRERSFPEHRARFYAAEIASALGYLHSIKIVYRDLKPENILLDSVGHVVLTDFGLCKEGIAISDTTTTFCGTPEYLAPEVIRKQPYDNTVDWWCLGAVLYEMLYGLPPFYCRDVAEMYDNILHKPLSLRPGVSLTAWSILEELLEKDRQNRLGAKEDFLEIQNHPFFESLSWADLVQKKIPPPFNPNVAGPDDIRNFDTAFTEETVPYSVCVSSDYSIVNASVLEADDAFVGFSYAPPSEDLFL
The procedure, abridged: as §1

The target of another assay is T6, TTBK1 (Homo sapiens, UniProt Q5TCY1).
T6 construct: purchased Reaction Biology Corp
The procedure, abridged: as §1

A further assay concerns the target T7, EPHA4 (Homo sapiens, UniProt P54764).
T7 construct: purchased Reaction Biology Corp
The method in brief: as §1

A further assay deals with T8, CDK6/cyclin D3 (Homo sapiens, UniProt Q00534).
T8 construct: purchased Reaction Biology Corp
The procedure, abridged: as §1

[1] abbreviates: read-out: % Enzyme Activity (relative to DMSO controls) AVG.
Where [2] appears, read: read-out: % Enzyme Activity (relative to DMSO controls) Data 1.
Where [3] appears, read: read-out: % Enzyme Activity (relative to DMSO controls) Data 2.

Where two headings read alike, the source gives them in different places.

T7 sequence (P54764 20-986): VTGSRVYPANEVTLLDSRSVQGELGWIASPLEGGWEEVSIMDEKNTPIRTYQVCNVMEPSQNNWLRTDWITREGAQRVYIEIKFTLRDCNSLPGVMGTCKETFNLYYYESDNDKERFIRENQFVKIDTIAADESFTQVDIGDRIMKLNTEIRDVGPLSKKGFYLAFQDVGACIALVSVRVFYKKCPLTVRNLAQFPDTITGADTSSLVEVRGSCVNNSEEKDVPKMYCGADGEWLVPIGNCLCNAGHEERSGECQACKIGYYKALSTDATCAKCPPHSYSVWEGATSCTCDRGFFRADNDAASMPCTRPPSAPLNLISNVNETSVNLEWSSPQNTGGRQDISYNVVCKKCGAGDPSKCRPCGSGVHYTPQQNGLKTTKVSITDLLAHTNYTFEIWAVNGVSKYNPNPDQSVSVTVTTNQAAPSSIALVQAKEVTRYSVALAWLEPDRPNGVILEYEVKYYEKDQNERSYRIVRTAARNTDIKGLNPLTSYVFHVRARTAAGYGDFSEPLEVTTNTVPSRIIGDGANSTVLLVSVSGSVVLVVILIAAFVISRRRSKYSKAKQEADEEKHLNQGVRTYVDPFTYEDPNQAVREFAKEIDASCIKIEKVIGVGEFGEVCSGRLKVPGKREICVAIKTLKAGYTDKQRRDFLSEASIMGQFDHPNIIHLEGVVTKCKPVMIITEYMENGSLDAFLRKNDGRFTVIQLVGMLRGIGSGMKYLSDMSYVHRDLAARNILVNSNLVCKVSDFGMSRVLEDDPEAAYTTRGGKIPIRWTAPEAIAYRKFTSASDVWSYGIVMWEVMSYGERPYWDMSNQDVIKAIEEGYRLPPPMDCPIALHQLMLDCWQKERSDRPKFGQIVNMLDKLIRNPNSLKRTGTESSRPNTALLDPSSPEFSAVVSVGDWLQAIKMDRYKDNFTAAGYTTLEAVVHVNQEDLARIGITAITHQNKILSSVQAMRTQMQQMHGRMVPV
T6 sequence (Q5TCY1 whole entry): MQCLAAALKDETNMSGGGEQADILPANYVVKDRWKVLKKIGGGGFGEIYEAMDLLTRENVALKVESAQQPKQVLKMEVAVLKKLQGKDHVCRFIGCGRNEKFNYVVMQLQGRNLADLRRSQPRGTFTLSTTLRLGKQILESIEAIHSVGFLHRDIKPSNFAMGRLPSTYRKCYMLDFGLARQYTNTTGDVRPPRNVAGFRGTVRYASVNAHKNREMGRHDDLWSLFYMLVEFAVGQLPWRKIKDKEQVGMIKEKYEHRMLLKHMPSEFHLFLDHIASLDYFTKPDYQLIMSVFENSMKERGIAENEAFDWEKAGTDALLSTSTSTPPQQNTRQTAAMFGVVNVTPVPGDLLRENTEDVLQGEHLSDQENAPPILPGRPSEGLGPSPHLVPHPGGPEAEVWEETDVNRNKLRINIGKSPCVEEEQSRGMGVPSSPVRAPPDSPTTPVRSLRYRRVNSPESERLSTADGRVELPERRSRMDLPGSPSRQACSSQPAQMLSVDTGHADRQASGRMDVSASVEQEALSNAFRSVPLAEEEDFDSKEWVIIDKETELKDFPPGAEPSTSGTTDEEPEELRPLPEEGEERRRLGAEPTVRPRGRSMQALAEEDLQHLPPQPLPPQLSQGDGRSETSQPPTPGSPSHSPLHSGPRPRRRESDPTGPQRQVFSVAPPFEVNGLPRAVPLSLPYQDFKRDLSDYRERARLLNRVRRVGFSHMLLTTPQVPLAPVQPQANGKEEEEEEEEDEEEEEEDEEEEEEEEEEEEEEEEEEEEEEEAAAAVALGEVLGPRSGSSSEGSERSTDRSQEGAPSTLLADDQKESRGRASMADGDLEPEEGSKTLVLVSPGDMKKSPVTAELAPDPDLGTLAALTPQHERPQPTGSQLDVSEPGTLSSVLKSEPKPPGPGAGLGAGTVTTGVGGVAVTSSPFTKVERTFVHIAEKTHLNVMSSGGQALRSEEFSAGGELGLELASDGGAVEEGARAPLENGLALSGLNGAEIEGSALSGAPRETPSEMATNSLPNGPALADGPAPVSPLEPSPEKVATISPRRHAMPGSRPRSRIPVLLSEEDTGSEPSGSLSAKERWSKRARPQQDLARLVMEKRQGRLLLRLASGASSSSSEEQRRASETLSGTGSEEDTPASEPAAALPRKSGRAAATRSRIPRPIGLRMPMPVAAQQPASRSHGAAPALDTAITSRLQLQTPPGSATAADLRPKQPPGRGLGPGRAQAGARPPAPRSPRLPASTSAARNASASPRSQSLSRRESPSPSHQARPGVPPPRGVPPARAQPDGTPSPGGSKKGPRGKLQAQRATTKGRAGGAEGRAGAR
T2 sequence (P06239 whole entry): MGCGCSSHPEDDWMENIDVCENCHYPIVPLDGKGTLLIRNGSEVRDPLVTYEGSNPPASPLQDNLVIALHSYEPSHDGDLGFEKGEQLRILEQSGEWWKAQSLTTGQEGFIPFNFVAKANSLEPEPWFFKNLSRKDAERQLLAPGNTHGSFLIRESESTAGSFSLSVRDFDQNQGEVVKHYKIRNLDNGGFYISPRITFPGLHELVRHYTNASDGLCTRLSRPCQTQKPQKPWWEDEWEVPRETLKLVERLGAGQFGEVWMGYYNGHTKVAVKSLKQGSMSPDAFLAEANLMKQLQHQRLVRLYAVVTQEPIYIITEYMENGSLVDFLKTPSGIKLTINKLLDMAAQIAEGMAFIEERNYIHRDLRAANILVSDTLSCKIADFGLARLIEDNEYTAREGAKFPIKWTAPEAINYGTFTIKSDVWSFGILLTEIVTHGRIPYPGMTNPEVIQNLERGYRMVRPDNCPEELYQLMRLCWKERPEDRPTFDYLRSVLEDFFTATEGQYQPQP
T3 sequence (Q9H2X6 whole entry): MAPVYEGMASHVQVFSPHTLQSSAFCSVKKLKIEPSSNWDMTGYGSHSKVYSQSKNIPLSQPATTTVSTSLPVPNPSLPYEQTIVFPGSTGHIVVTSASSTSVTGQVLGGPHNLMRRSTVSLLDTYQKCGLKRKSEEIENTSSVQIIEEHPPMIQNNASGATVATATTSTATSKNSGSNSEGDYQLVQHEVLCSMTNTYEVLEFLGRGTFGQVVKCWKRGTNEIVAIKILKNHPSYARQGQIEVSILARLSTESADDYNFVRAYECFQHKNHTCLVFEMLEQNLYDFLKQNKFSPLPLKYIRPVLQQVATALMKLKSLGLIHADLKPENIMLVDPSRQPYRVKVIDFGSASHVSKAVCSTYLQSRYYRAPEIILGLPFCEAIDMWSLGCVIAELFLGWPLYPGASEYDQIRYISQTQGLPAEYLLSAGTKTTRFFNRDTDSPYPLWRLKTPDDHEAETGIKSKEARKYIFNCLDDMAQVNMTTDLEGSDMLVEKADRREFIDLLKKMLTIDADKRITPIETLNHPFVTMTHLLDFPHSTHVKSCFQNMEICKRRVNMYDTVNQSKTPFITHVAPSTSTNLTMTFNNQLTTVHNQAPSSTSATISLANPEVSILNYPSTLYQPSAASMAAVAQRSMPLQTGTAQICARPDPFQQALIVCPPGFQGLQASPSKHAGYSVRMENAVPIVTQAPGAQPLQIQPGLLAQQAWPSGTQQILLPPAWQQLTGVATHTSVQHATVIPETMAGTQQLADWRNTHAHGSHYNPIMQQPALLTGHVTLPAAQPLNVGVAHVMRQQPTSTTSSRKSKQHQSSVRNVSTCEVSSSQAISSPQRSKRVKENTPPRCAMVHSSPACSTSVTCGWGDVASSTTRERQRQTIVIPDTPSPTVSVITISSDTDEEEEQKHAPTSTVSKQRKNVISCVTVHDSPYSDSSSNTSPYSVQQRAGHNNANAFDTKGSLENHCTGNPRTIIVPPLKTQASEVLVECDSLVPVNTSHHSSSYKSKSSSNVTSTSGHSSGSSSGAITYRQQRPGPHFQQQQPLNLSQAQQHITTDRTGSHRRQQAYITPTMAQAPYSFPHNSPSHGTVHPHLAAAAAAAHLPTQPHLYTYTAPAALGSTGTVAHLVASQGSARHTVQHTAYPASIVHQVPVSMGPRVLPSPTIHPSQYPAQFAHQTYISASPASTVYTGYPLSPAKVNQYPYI
T8 sequence (Q00534 whole entry): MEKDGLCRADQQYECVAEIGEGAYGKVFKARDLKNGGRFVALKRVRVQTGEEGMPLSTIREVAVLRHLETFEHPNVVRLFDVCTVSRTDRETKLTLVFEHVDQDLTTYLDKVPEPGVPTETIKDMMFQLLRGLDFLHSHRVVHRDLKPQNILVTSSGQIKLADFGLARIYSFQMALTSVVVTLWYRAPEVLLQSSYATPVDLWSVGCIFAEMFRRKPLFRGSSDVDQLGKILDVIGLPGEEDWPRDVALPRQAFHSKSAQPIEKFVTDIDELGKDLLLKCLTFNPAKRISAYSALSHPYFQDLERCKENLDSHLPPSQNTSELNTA
T8 sequence (P30281 whole entry partner): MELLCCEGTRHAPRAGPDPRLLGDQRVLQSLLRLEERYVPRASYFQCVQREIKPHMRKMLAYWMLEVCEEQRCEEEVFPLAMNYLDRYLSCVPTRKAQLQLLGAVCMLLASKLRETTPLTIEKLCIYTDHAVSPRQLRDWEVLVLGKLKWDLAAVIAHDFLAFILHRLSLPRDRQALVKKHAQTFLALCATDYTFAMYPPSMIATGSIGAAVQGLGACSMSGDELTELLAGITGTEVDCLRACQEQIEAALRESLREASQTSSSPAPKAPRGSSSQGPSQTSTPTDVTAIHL

Turning to `CC(C)(C)C(=O)N1N=CC[C@H]1c1ccccc1` [GSK′963], the remaining activity at 10 µM at PKCzeta (setting [1]) turned out to be 105%; at PKCzeta (setting [2]), 105%; on PKCzeta (setting [3]), 105%; on LCK (setting [1]) it was 96.4%; on LCK (setting [2]) it was 96.1%; on LCK (setting [3]), 96.7%. In addition, the remaining activity at 10 µM was determined as 103% on HIPK2 (setting [1]); 101% at HIPK2 (setting [2]); 104% at HIPK2 (setting [3]); 97.2% at TYRO3/SKY (setting [1]); 97.1% on TYRO3/SKY (setting [2]); 97.3% on TYRO3/SKY (setting [3]). The remaining activity at 10 µM at SGK3/SGKL (setting [1]) was 107%; at SGK3/SGKL (setting [2]), 104%; at SGK3/SGKL (setting [3]), 110%; at TTBK1 (setting [1]) it was 110%; at TTBK1 (setting [2]), 109%; at TTBK1 (setting [3]) it was 111%. Moreover, the remaining activity at 10 µM on EPHA4 (setting [1]) was determined as 99.2%; on EPHA4 (setting [2]), 99.2%; on EPHA4 (setting [3]), 99.2%; on CDK6/cyclin D3 (setting [1]), 86.9%; at CDK6/cyclin D3 (setting [2]), 84.5%; on CDK6/cyclin D3 (setting [3]), 89.3%.
